Results from US8859569B2, “Substituted annellated pyrimidines and use thereof” (Bayer Pharma Aktiengesellschaft, priority 2011, dated 2014).

Columns and labels:
[1] = target: T1, recombinant guanylate cyclase reporter cell line (Rattus norvegicus, UniProt P19686+P20595); assay: Action on recombinant guanylate cyclase reporter cell line; format: cell-based
T1 construct: expressed in transfected cells
T1 sequence (P20595 1-619): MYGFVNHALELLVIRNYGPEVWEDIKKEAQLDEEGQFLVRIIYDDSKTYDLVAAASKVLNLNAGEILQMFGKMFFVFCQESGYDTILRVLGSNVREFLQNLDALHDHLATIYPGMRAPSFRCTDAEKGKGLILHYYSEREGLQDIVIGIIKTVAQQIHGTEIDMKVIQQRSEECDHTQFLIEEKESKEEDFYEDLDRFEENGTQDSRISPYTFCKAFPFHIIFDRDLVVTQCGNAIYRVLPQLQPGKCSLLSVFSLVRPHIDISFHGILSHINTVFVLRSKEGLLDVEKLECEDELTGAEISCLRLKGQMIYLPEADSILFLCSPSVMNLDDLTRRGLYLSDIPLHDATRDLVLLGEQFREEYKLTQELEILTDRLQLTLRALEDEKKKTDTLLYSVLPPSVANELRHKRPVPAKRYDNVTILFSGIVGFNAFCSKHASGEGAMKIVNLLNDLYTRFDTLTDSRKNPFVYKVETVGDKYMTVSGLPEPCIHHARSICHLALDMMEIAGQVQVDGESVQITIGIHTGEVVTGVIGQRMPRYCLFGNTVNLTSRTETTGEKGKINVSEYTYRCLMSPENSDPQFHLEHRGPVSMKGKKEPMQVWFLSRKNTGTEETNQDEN
T1 sequence (P19686 1-690): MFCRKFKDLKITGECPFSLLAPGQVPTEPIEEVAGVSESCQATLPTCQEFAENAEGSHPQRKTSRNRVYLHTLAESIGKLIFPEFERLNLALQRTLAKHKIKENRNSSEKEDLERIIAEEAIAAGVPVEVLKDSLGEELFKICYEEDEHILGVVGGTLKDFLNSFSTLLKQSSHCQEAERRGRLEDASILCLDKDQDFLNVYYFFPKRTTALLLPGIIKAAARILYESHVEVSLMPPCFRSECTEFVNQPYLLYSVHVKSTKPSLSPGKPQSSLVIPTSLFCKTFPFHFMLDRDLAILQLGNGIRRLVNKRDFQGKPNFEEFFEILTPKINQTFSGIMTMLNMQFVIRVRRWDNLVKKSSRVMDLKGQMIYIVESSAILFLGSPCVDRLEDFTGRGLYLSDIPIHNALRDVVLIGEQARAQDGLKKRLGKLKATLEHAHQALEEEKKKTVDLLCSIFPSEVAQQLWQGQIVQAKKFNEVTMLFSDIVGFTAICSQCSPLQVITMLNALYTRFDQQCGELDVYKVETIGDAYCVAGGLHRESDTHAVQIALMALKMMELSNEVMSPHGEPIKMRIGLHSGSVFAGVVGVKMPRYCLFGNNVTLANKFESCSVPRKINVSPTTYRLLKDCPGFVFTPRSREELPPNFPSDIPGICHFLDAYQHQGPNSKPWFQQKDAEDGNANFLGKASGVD
Method: B-2. Action on Recombinant Guanylate Cyclase Reporter Cell Line
The cellular action of the compounds according to the invention is determined on a recombinant guanylate cyclase reporter cell line, as described in F. Wunder et al., Anal. Biochem. 339, 104-112 (2005).

[2] = target: T2, human phosphodiesterase 5 (PDE-5) (Homo sapiens, UniProt O76074); assay: Inhibition of human phosphodiesterase 5 (PDE-5), SPA assay; format: biochemical; settings: PDE-5 preparation from human platelets, [8-3H]cGMP substrate
T2 construct: PDE-5 preparations are obtained from human platelets by lysis; from tissue; host or cells: human platelets
Method: B-6. Inhibition of Human Phosphodiesterase 5 (PDE-5)
PDE-5 preparations are obtained from human platelets by lysis (Microfluidizer®, 800 bar, 3 passages), followed by centrifugation (75000 g, 60 min, 4° C.) and ion-exchange chromatography of the supernatant on a Mono Q 10/10 column (linear sodium chloride gradient, elution with a 0.2-0.3M solution of sodium chloride in buffer (20 mM Hepes pH 7.2, 2 mM magnesium chloride). Fractions that have PDE-5 activity are combined (PDE-5 preparation) and stored at −80° C.
For determining their in-vitro action on human PDE-5, the test substances are dissolved in 100% DMSO and serial dilutions are prepared. Typically, dilution series (1:3) from 200 μM to 0.091 μM are prepared (resultant final concentrations in the test: 4 μM to 0.0018 μM). In each case 2 μL of the diluted solutions of the substance are put in the wells of microtitre plates (Isoplate-96/200W; Perkin-Elmer). Then 50 μL of a dilution of the PDE-5 preparation described above is added. The dilution of the PDE-5 preparation is selected so that during subsequent incubation less than 70% of the substrate is reacted (typical dilution: 1:100; dilution buffer: 50 mM Tris/hydrochloric acid pH 7.5, 8.3 mM magnesium chloride, 1.7 mM EDTA, 0.2% BSA). The substrate [8-^3H]cyclic guanosine-3′,5′-monophosphate (1 μCi/μL; Perkin-Elmer) is diluted 1:2000 with assay buffer (50 mM Tris/hydrochloric acid pH 7.5, 8.3 mM magnesium chloride, 1.7 mM EDTA) to a concentration of 0.0005 μCi/μL. The enzyme reaction is finally started by adding 50 μL (0.025 μCi) of the diluted substrate. The test preparations are incubated for 60 min at room temperature and the reaction is stopped by adding 25 μL of a suspension of 18 mg/mL of Yttrium Scintillation Proximity Beads in water (phosphodiesterase beads for SPA assays, RPNQ 0150, Perkin-Elmer). The microtitre plates are sealed with film and left to stand for 60 min at room temperature. Then the plates are measured for 30 s per well in a Microbeta scintillation counter (Perkin-Elmer). IC50 values are determined on the basis of the graphs plotted of the substance concentration versus the percentage PDE-5 inhibition.

Row | MEC (minimal effective concentration) [1] | IC50 [2] | SMILES
1 | 0.1 μm | 0.016 µM | CC1(C)C(=O)Nc2nc(-c3nn(Cc4ccccc4F)c4ncccc34)nc(NC[C@H]3CNC(=O)C3)c21 [Example 66, 2-[1-(2-fluorobenzyl)-1H-pyrazolo[3,4-b]pyridin-3-yl]-5,5-dimethyl-4-{[(5-oxopyrrolidin-3-yl)methyl]amino}-5,7-dihydro-6H-pyrrolo[2,3-d]pyrimidin-6-one]
2 | 0.1 μm | 0.035 µM | CC1(C)CCN(c2nc(-c3nn(Cc4ccccc4F)c4ncccc34)nc3c2C(C)(C)C(=O)N3)CC1 [Example 68, 4-(4,4-dimethylpiperidin-1-yl)-2-[1-(2-fluorobenzyl)-1H-pyrazolo[3,4-b]pyridin-3-yl]-5,5-dimethyl-5,7-dihydro-6H-pyrrolo[2,3-d]pyrimidin-6-one]
3 | 0.3 μm | 0.046 µM | CC1(C)C(=O)Nc2nc(-c3nn(Cc4ccccc4F)c4ncccc34)nc(Nc3ccncc3)c21 [Example 69, 2-[1-(2-fluorobenzyl)-1H-pyrazolo[3,4-b]pyridin-3-yl]-5,5-dimethyl-4-(pyridin-4-ylamino)-5,7-dihydro-6H-pyrrolo[2,3-d]pyrimidin-6-one]
4 | 0.03 μm | 0.08 µM | CN1CCN(c2nc(-c3nn(Cc4ccccc4F)c4ncccc34)nc3c2C(C)(C)C(=O)N3)CC1 [Example 70, 2-[1-(2-fluorobenzyl)-1H-pyrazolo[3,4-b]pyridin-3-yl]-5,5-dimethyl-4-(4-methylpiperazin-1-yl)-5,7-dihydro-6H-pyrrolo[2,3-d]pyrimidin-6-one]
5 | 0.01 μm | 0.042 µM | CCOCCCNc1nc(-c2nn(Cc3ccccc3F)c3ncccc23)nc2c1C(C)(C)C(=O)N2 [Example 71, 4-[(3-ethoxypropyl)amino]-2-[1-(2-fluorobenzyl)-1H-pyrazolo[3,4-b]pyridin-3-yl]-5,5-dimethyl-5,7-dihydro-6H-pyrrolo[2,3-d]pyrimidin-6-one]
6 | 0.1 μm | 0.11 µM | CC1(C)C(=O)Nc2nc(-c3nn(Cc4ccccc4F)c4ncccc34)nc(N3CCOCC3)c21 [Example 72, 2-[1-(2-fluorobenzyl)-1H-pyrazolo[3,4-b]pyridin-3-yl]-5,5-dimethyl-4-(morpholin-4-yl)-5,7-dihydro-6H-pyrrolo[2,3-d]pyrimidin-6-one]
7 | 0.3 μm | 0.016 µM | CC1(C)C(=O)Nc2nc(-c3nn(Cc4ccccc4F)c4ncccc34)nc(NCCC(N)=O)c21 [Example 73, N^3-{2-[1-(2-fluorobenzyl)-1H-pyrazolo[3,4-b]pyridin-3-yl]-5,5-dimethyl-6-oxo-6,7-dihydro-5H-pyrrolo[2,3-d]pyrimidin-4-yl}-beta-alaninamide]
8 | 0.01 μm | 0.11 µM | COCCCNc1nc(-c2nn(Cc3ccccc3F)c3ncccc23)nc2c1C(C)(C)C(=O)N2 [Example 74, 2-[1-(2-fluorobenzyl)-1H-pyrazolo[3,4-b]pyridin-3-yl]-4-[(3-methoxypropyl)amino]-5,5-dimethyl-5,7-dihydro-6H-pyrrolo[2,3-d]pyrimidin-6-one]
9 | 0.03 μm | 0.21 µM | COCCN(C)c1nc(-c2nn(Cc3ccccc3F)c3ncccc23)nc2c1C(C)(C)C(=O)N2 [Example 75, 2-[1-(2-fluorobenzyl)-1H-pyrazolo[3,4-b]pyridin-3-yl]-4-[(2-methoxyethyl)(methyl)amino]-5,5-dimethyl-5,7-dihydro-6H-pyrrolo[2,3-d]pyrimidin-6-one]
10 | 0.03 μm | 0.13 µM | CC1(C)C(=O)Nc2nc(-c3nn(Cc4ccccc4F)c4ncccc34)nc(N3CCC(F)(F)C3)c21 [Example 76, 4-(3,3-difluoropyrrolidin-1-yl)-2-[1-(2-fluorobenzyl)-1H-pyrazolo[3,4-b]pyridin-3-yl]-5,5-dimethyl-5,7-dihydro-6H-pyrrolo[2,3-d]pyrimidin-6-one]
11 | 0.03 μm | 0.33 µM | CC1(C)C(=O)Nc2nc(-c3nn(Cc4ccccc4F)c4ncccc34)nc(NCc3cccc(F)c3)c21 [Example 78, 4-[(3-fluorobenzyl)amino]-2-[1-(2-fluorobenzyl)-1H-pyrazolo[3,4-b]pyridin-3-yl]-5,5-dimethyl-5,7-dihydro-6H-pyrrolo[2,3-d]pyrimidin-6-one]
12 | 0.03 μm | 0.29 µM | CC1(C)C(=O)Nc2nc(-c3nn(Cc4ccccc4F)c4ncccc34)nc(N[C@@H]3CCCNC3=O)c21 [Example 81, 2-[1-(2-fluorobenzyl)-1H-pyrazolo[3,4-b]pyridin-3-yl]-5,5-dimethyl-4-[(2-oxopiperidin-3-yl)amino]-5,7-dihydro-6H-pyrrolo[2,3-d]pyrimidin-6-one]
13 | 0.03 μm | 0.23 µM | CC1(C)C(=O)Nc2nc(-c3nn(Cc4ccccc4F)c4ncccc34)nc(NCc3ccccc3)c21 [Example 83, 4-(benzylamino)-2-[1-(2-fluorobenzyl)-1H-pyrazolo[3,4-b]pyridin-3-yl]-5,5-dimethyl-5,7-dihydro-6H-pyrrolo[2,3-d]pyrimidin-6-one]
14 | 0.1 μm | 0.019 µM | CC1(C)C(=O)Nc2nc(-c3nn(Cc4ccccc4F)c4ncccc34)nc(NCc3cccnc3)c21 [Example 84, 2-[1-(2-fluorobenzyl)-1H-pyrazolo[3,4-b]pyridin-3-yl]-5,5-dimethyl-4-[(pyridin-3-ylmethyl)amino]-5,7-dihydro-6H-pyrrolo[2,3-d]pyrimidin-6-one]
15 | 0.3 μm | 0.0042 µM | CC1(C)C(=O)Nc2nc(-c3nn(Cc4ccccc4F)c4ncccc34)nc(NCc3ccncc3)c21 [Example 85, 2-[1-(2-fluorobenzyl)-1H-pyrazolo[3,4-b]pyridin-3-yl]-5,5-dimethyl-4-[(pyridin-4-ylmethyl)amino]-5,7-dihydro-6H-pyrrolo[2,3-d]pyrimidin-6-one]
16 | 0.01 μm | 0.33 µM | CC1(C)C(=O)Nc2nc(-c3nn(Cc4ccccc4F)c4ncccc34)nc(NC[C@H]3CCCO3)c21 [Example 86, 2-[1-(2-fluorobenzyl)-1H-pyrazolo[3,4-b]pyridin-3-yl]-5,5-dimethyl-4-[(tetrahydrofuran-2-ylmethyl)amino]-5,7-dihydro-6H-pyrrolo[2,3-d]pyrimidin-6-one]
